According to patent US7183095B2, “Cell culture system for synthesis of infectious hepatitis C virus” (priority 2001, dated 2007):

Tested on: HCV type 1a (pCV-H77C) in Huh-7 cells
Test: Cell surface expression of HCV envelope proteins E1 and E2 by flow cytometry (FACS) in transfected Huh-7 cells
Type: cell-based, hepatitis C virus
Settings: Huh-7 cells transfected with type 1a pCVH77C and AR3126, interferon treatment
Description: Transfected or supernatant treated Huh-7 cells were stained with anti-E1 or anti-E2 antibodies using procedures similar to those described previously by Koka et al. A goat anti-mouse IgG1 antibody conjugated to PE was used for labeling of the primary antibody. Flow cytometric analyses were performed on a Becton-Dickinson FACSCAN.
Huh-7 cells (1×10^7) were transfected/co-transfected with plasmid DNA at 60–70% confluency in T-75 tissue culture flasks. In some experiments transfection was carried out in 6-well plates (3×10^6 cells per well and 2 μg of each plasmid). Ten μgs of each plasmid was added to 0.45 ml of serum-free RPMI and mixed with 180 μl of superfect transfection reagent from Quiagen. The mixture was incubated at room temperature for 10 min after which 3 ml of RPMI containing 10% fetal bovine serum was then added. The mixture was then layered on Huh-7 cells and incubated at 37° C. for 6 h. The cell culture medium was changed regularly until the cells were harvested for labeling with appropriate antibodies or RNA isolation.
Viral protein synthesis was monitored by assaying cell surface expression of viral envelope proteins E1 and E2 by fluorescent activated cell sorting (FACS). Cell surface expression of HCV E1 and E2 was determined by flow cytometry following a procedure as previously described. […]

Question: gamma: interferon gamma was tested. Which E1/E2 expression did it give?
Answer: inhibited E1/E2 expression only marginally
